PubChem BioAssay AID284 (DTP/NCI, 2004)
“And” between values parts separate entries of the source, which are not always exact repeats. Equal values may be shown once. Toxic doses and inconclusive results are not listed. The calls were made as follows: active = survival T/C of 150% or more; inactive = T/C below 125% in these data.

Tested on: BDF1 mice, L1210/MTX-resistant leukemia ip, survival T/C
Assay: NCI In Vivo Anticancer Drug Screen. Data for tumor model L1210 Leukemia resistant to Methotrexate; NSC 740 (intraperitoneal) in B6D2F1 (BDF1) mice
Settings: endpoint: mean survival time, higher = longer survival
Description: The antitumor activity of compounds was measured in mice bearing transplantable tumors. Survival or tumor size were measured and the results are expressed as the measurement made in the treated group (T) divided by the measurement made in the vehicle treated control group (C). The tumor model used in this assay is L1210 Leukemia resistant to Methotrexate; NSC 740 (intraperitoneal) in B6D2F1 (BDF1) mice

[1] = dose: 7.5 mg/kg/injection, schedule: Q01DX Z (ip), vehicle: carboxymethylcellulose (CMC)
[2] = dose: 15.0 mg/kg/injection, schedule: Q01DX Z (ip), vehicle: carboxymethylcellulose (CMC)

Measured: T/C

CN(C)c1nc(N(C)C)nc(N(C)C)n1
inactive: dose: 0.5 mg/kg/injection, schedule: Q01DX Z (ip), vehicle: other 93 % of control | dose: 1.0 mg/kg/injection, schedule: Q01DX Z (ip), vehicle: other 103 % of control | dose: 4.0 mg/kg/injection, schedule: Q01DX Z (ip), vehicle: other 109 % of control | dose: 18.8 mg/kg/injection, schedule: Q01DX010 (ip), vehicle: saline 109 % of control | dose: 37.5 mg/kg/injection, schedule: Q01DX010 (ip), vehicle: saline 105 % of control | dose: 75.0 mg/kg/injection, schedule: Q01DX010 (ip), vehicle: saline 93 % of control | dose: 87.5 mg/kg/injection, schedule: Q01DX Z (ip), vehicle: other 101 % of control | dose: 150.0 mg/kg/injection, schedule: Q01DX010 (ip), vehicle: saline 104 % of control | dose: 175.0 mg/kg/injection, schedule: Q01DX Z (ip), vehicle: other 94 % of control

O=c1[nH]c(=O)n(C2CC(O)C(CO)O2)cc1F (stereo unspecified)
inactive: dose: 40.0 mg/kg/injection, schedule: Q01DX Z (ip), vehicle: other 118 % of control | dose: 80.0 mg/kg/injection, schedule: Q01DX Z (ip), vehicle: other 98 % of control | dose: 160.0 mg/kg/injection, schedule: Q01DX Z (ip), vehicle: other 102 % of control

C1CN1c1nc(N2CC2)nc(N2CC2)n1
inactive: dose: 2.0 mg/kg/injection, schedule: Q01DX Z (ip), vehicle: saline 93 % of control | dose: 4.0 mg/kg/injection, schedule: Q01DX Z (ip), vehicle: saline 93 % of control | dose: 32.0 micrograms/kg/injection, schedule: Q01DX Z (ip), vehicle: saline 90 % of control and 100 % of control | dose: 63.0 micrograms/kg/injection, schedule: Q01DX Z (ip), vehicle: saline 98 % of control | dose: 125.0 micrograms/kg/injection, schedule: Q01DX Z (ip), vehicle: saline 87 % of control | dose: 250.0 micrograms/kg/injection, schedule: Q01DX Z (ip), vehicle: saline 98 % of control

OCC1OC(n2cnc3c(Cl)ncnc32)C(O)C1O (stereo unspecified)
inactive: dose: 62.5 mg/kg/injection, schedule: Q01DX010 (ip), vehicle: saline 87 % of control and 90 % of control | dose: 125.0 mg/kg/injection, schedule: Q01DX010 (ip), vehicle: saline 95 % of control and 98 % of control | dose: 250.0 mg/kg/injection, schedule: Q01DX010 (ip), vehicle: saline 95 % of control and 100 % of control | dose: 500.0 mg/kg/injection, schedule: Q01DX010 (ip), vehicle: saline 98 % of control

S=P(N1CCCC1)(N1CC1)N1CC1
inactive: dose: 0.03 mg/kg/injection, schedule: Q01DX Z (ip), vehicle: methylcellulose (MC) 93 % of control | dose: 0.05 mg/kg/injection, schedule: Q01DX Z (ip), vehicle: methylcellulose (MC) 91 % of control | dose: 0.1 mg/kg/injection, schedule: Q01DX Z (ip), vehicle: methylcellulose (MC) 99 % of control

Cn1cnc([N+](=O)[O-])c1Sc1nc(N)nc2nc[nH]c12
inactive: dose: 1.0 mg/kg/injection, schedule: Q01DX Z (ip), vehicle: methylcellulose (MC) 92 % of control | dose: 2.0 mg/kg/injection, schedule: Q01DX Z (ip), vehicle: methylcellulose (MC) 96 % of control | dose: 4.0 mg/kg/injection, schedule: Q01DX Z (ip), vehicle: methylcellulose (MC) 109 % of control

CN(C)c1ccc(/C=C\c2ccnc3ccccc23)cc1
inactive: dose: 1.5 mg/kg/injection, schedule: Q01DX010 (ip), vehicle: saline 97 % of control | dose: 3.0 mg/kg/injection, schedule: Q01DX010 (ip), vehicle: saline 103 % of control | dose: 6.0 mg/kg/injection, schedule: Q01DX010 (ip), vehicle: saline 99 % of control

OCC1OC(n2cnc3c(=S)nc[nH]c32)C(O)C1O (stereo unspecified)
inactive: dose: 20.0 mg/kg/injection, schedule: Q01DX010 (ip), vehicle: saline 101 % of control and 102 % of control | dose: 40.0 mg/kg/injection, schedule: Q01DX010 (ip), vehicle: saline 91 % of control and 101 % of control | dose: 80.0 mg/kg/injection, schedule: Q01DX010 (ip), vehicle: saline 98 % of control | dose: 160.0 mg/kg/injection, schedule: Q01DX010 (ip), vehicle: saline 88 % of control and 93 % of control

O=CCC(O)C(O)C(O)CO (stereo unspecified)
inactive: dose: 3.75 mg/kg/injection, schedule: Q01DX Z (ip), vehicle: saline 113 % of control | dose: 5.0 mg/kg/injection, schedule: Q01DX Z (ip), vehicle: saline 118 % of control | dose: 7.5 mg/kg/injection, schedule: Q01DX Z (ip), vehicle: saline 114 % of control and 103 % of control | dose: 10.0 mg/kg/injection, schedule: Q01DX Z (ip), vehicle: saline 118 % of control | dose: 15.0 mg/kg/injection, schedule: Q01DX Z (ip), vehicle: saline 114 % of control | dose: 250.0 mg/kg/injection, schedule: Q01DX Z (ip), vehicle: saline 108 % of control | dose: 500.0 mg/kg/injection, schedule: Q01DX Z (ip), vehicle: saline 104 % of control | dose: 750.0 mg/kg/injection, schedule: Q01DX Z (ip), vehicle: saline 99 % of control | dose: 1000.0 mg/kg/injection, schedule: Q01DX Z (ip), vehicle: saline 91 % of control

O=c1[nH]c(=O)n(C2CC(O)C(CO)O2)cc1I (stereo unspecified)
inactive: dose: 3.75 mg/kg/injection, schedule: Q01DX Z (ip), vehicle: carboxymethylcellulose (CMC) 102 % of control | [1] 108 % of control | [2] 108 % of control | dose: 30.0 mg/kg/injection, schedule: Q01DX Z (ip), vehicle: carboxymethylcellulose (CMC) 106 % of control

CSc1ncnc2nc[nH]c12
inactive: [1] 93 % of control | [2] 86 % of control | dose: 31.0 mg/kg/injection, schedule: Q01DX Z (ip), vehicle: carboxymethylcellulose (CMC) 122 % of control | dose: 62.5 mg/kg/injection, schedule: Q01DX Z (ip), vehicle: carboxymethylcellulose (CMC) 112 % of control | dose: 125.0 mg/kg/injection, schedule: Q01DX Z (ip), vehicle: carboxymethylcellulose (CMC) 107 % of control

CCCCn1cnc2c(=S)nc[nH]c21
inactive: dose: 16.0 mg/kg/injection, schedule: Q01DX010 (ip), vehicle: saline 114 % of control | dose: 32.0 mg/kg/injection, schedule: Q01DX010 (ip), vehicle: saline 97 % of control | dose: 64.0 mg/kg/injection, schedule: Q01DX010 (ip), vehicle: saline 105 % of control

CN(N=O)C(N)=O
inactive: dose: 5.0 mg/kg/injection, schedule: Q01DX010 (ip), vehicle: saline 122 % of control | dose: 12.5 mg/kg/injection, schedule: Q01DX Z (ip), vehicle: saline 105 % of control | dose: 25.0 mg/kg/injection, schedule: Q01DX Z (ip), vehicle: saline 101 % of control | dose: 50.0 mg/kg/injection, schedule: Q01DX Z (ip), vehicle: saline 103 % of control

Nc1ccc(C(=O)NO)cc1
inactive: dose: 112.0 mg/kg/injection, schedule: Q01DX015 (ip), vehicle: carboxymethylcellulose (CMC) 109 % of control | dose: 225.0 mg/kg/injection, schedule: Q01DX015 (ip), vehicle: carboxymethylcellulose (CMC) 117 % of control | dose: 450.0 mg/kg/injection, schedule: Q01DX015 (ip), vehicle: carboxymethylcellulose (CMC) 100 % of control

C[C@]12CCC(=O)C=C1CC[C@@H]1[C@@H]2C(=O)C[C@@]2(C)[C@H]1CC[C@]2(O)C(=O)CO
inactive: dose: 63.0 mg/kg/injection, schedule: Q01DX Z (sc), vehicle: steriod suspending solution 101 % of control and 106 % of control | dose: 100.0 mg/kg/injection, schedule: Q01DX Z (sc), vehicle: steriod suspending solution 89 % of control | dose: 125.0 mg/kg/injection, schedule: Q01DX Z (sc), vehicle: steriod suspending solution 98 % of control and 102 % of control
